From ChEMBL document CHEMBL1201862, “PubChem BioAssay data set” (2004)
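Where inhibition never reached the appropriate level, the endpoint shown equals the highest concentration tested. Otherwise, values were interpolated linearly from a five-concentration, 48-hour dose response in 96-well plates. GI50 is the concentration that inhibits growth by half.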 Activity calls are given as the source filed them. Cut-off read from the data, not from the text of the source: active = GI50 up to about 1.1 µM and inactive = higher. Square brackets hold non-standard residues; d marks the D form. Peptide text beside a SMILES is read from it. * marks the point of attachment. X26 = COC1=CC(=O)N(C(=O)[C@@H](O*)C(C)C)[C@H]1Cc1ccccc1; NMeL = CN[C@@H](CC(C)C)C(=O)O; Hexanoyl = CCCCCC(=O)*

Assays:
Test in all cases: growth of human tumour cells (NCI), 48 h
[1] = test system: HCC 2998
[2] = test system: SK-OV-3
[3] = test system: SNB-75
[4] = test system: Malme-3M
[5] = test system: UACC-257
[6] = test system: EKVX
[7] = test system: T47D
[8] = test system: RPMI-8226
[9] = test system: MCF7
[10] = test system: U-251
[11] = test system: OVCAR-3
[12] = test system: OVCAR-8
[13] = test system: DU-145
[14] = test system: LOX IMVI
[15] = test system: IGROV-1
[16] = test system: SF-295
[17] = test system: MDA-MB-231
[18] = test system: UO-31
[19] = test system: SR
[20] = test system: UACC-62

Measured: GI50

CC1CN=C(Nc2ccc(F)cc2F)S1 (stereo not given)
inactive: [1] > 100 µM | [2] > 100 µM | [3] 70.3 µM | [4] > 100 µM | [5] > 100 µM | [6] 75 µM | [7] 88.9 µM | [8] > 100 µM | [9] > 100 µM | [10] > 100 µM | [11] > 100 µM | [12] > 100 µM | [13] > 100 µM | [14] > 100 µM | [15] > 100 µM | [16] > 100 µM | [17] > 100 µM | [18] > 100 µM | [19] > 100 µM

CSC(SC)=C(C(=O)O)P(=O)(O)O
inactive: [1] > 100 µM | [2] > 100 µM | [4] > 100 µM | [5] > 100 µM | [6] > 100 µM | [7] > 100 µM | [9] > 100 µM | [11] > 100 µM | [20] > 100 µM | [12] > 100 µM | [13] > 100 µM | [14] > 100 µM | [15] > 100 µM | [16] > 100 µM | [17] > 100 µM | [19] > 100 µM

CSc1nnnc2ccccc12
inactive: [1] > 100 µM | [2] > 100 µM | [3] > 100 µM | [4] > 100 µM | [5] > 100 µM | [6] > 100 µM | [7] 85.1 µM | [8] > 100 µM | [9] 51.4 µM | [10] > 100 µM | [11] > 100 µM | [20] > 100 µM | [12] > 100 µM | [13] > 100 µM | [14] > 100 µM | [15] > 100 µM | [16] > 100 µM | [17] > 100 µM | [18] > 100 µM

COc1ccc(C=C2C(C)=NN(c3cccc(Cl)c3)C23C(Cl)C(=O)N3c2nc3ccccc3s2)cc1 (stereo not given)
inactive: [1] 3 µM | [2] 28.6 µM | [5] 24.9 µM | [6] 27.3 µM | [7] 24.6 µM | [8] 2.82 µM | [9] 17.5 µM | [10] 14.6 µM | [11] 19.4 µM | [12] 18.9 µM | [13] 17.5 µM | [14] 17.7 µM | [15] 16.4 µM | [16] 22.1 µM | [17] 12.9 µM | [18] 16.3 µM | [19] 21.6 µM

CCCCCC(=O)N[C@H](C(=O)N[C@H](C(=O)N(C)[C@@H](CC(C)C)C(=O)N1CCC[C@H]1C(=O)N1CCC[C@H]1C(=O)O[C@H](C(=O)N1C(=O)C=C(OC)[C@@H]1Cc1ccccc1)C(C)C)C(C)C)C(C)C (Hexanoyl-VV[NMeL]PP-X26)
inactive: [1] > 74.3 µM | [2] > 100 µM | [3] 19.5 µM | [4] > 20.5 µM | [5] 45.3 µM | [6] > 100 µM | [7] 70.8 µM | [8] 2.74 µM | [9] 25.9 µM | [10] > 91.6 µM | [11] > 100 µM | [20] > 100 µM | [12] > 100 µM | [13] > 43.8 µM | [14] > 100 µM | [15] > 44.2 µM | [16] > 100 µM | [17] > 64.9 µM

COc1nc(=O)n(C2CC(N=[N+]=[N-])C(CO)O2)cc1C (stereo not given)
inactive: [4] > 100 µM | [5] > 100 µM | [6] > 100 µM | [7] > 100 µM | [9] > 100 µM | [10] > 100 µM | [11] > 100 µM | [20] > 100 µM | [12] > 100 µM | [13] > 100 µM | [14] > 100 µM | [15] > 100 µM | [16] > 100 µM | [17] > 100 µM | [18] 52 µM | [19] > 100 µM

C=C1C(=O)O[C@@H]2[C@@H]3O[C@@H](C[C@@H]13)[C@](C)(O)CC/C=C(\C)CCC[C@@H]2C
inactive: [1] 17.7 µM | [2] 19.3 µM | [3] 11.8 µM | [4] 13.3 µM | [5] 12.3 µM | [6] 15 µM | [7] 18.7 µM | [8] 2.82 µM | [9] 7.48 µM | [10] 10.5 µM | [11] 12.5 µM | [20] 12.4 µM | [12] 6.7 µM | [13] 14.2 µM | [14] 4.75 µM | [15] 10.2 µM | [16] 26.4 µM | [17] 16.6 µM | [18] 10.8 µM

Cc1c(N2C(=O)/C(=C/C=C/c3ccccc3)N=C2c2ccccc2)c(=O)n(-c2ccccc2)n1C
inactive: [2] 23 µM | [3] 3.78 µM | [4] 28.8 µM | [5] 18.9 µM | [6] 15.6 µM | [7] 30.8 µM | [8] 19.1 µM | [9] 28.8 µM | [10] 16.8 µM | [11] 20.4 µM | [20] 16.4 µM | [12] 26.1 µM | [13] 40.8 µM | [14] 21.5 µM | [15] 16.3 µM | [16] 19.1 µM | [17] 22.1 µM | [18] 18.4 µM | [19] 17.4 µM

Cc1ccc(S(=O)(=O)NCCN(CCNS(=O)(=O)c2ccc(C)cc2)S(=O)(=O)c2ccc(C)cc2)cc1
inactive: [1] > 100 µM | [2] 43.1 µM | [4] 15.4 µM | [5] 29.1 µM | [6] 85.1 µM | [7] > 100 µM | [8] 56.2 µM | [9] 81.7 µM | [10] 28.9 µM | [11] > 100 µM | [20] 79.1 µM | [12] 94.6 µM | [13] > 100 µM | [14] 40.1 µM | [15] 84.1 µM | [16] > 100 µM | [17] > 100 µM | [18] > 100 µM | [19] > 100 µM

CCOC(=O)c1sc2nc(SC)nc(Nc3ccc4c(c3)OCCO4)c2c1N
inactive: [1] 25.7 µM | [4] 12 µM | [5] 21.7 µM | [6] 9.59 µM | [7] 6.34 µM | [8] 12.6 µM | [9] 10.5 µM | [10] 5.87 µM | [11] 13.5 µM | [20] 11.4 µM | [12] 5.12 µM | [13] 14.1 µM | [14] 30.6 µM | [15] 29.9 µM | [16] 42.3 µM | [17] 11.1 µM | [18] 15 µM | [19] 20.5 µM

COC(=O)C(O)P(=O)(OC)OC (stereo not given)
inactive: [2] > 100 µM | [4] > 100 µM | [5] > 100 µM | [6] > 100 µM | [7] > 100 µM | [8] > 100 µM | [9] > 100 µM | [10] > 100 µM | [11] > 100 µM | [20] > 100 µM | [12] > 100 µM | [13] > 100 µM | [14] > 100 µM | [15] > 100 µM | [16] > 100 µM | [17] > 100 µM | [18] > 100 µM | [19] > 100 µM

Nc1cc(N)cc(Cc2ccccc2)c1
inactive: [1] > 100 µM | [2] > 100 µM | [4] > 100 µM | [5] > 100 µM | [6] > 100 µM | [7] > 100 µM | [9] > 100 µM | [10] > 100 µM | [11] > 100 µM | [12] > 100 µM | [13] > 100 µM | [14] > 100 µM | [15] > 100 µM | [16] > 100 µM | [17] > 100 µM | [18] > 100 µM | [19] > 100 µM

[O-][Cl+3]([O-])([O-])[O-].[O-][Cl+3]([O-])([O-])[O-].c1ccn2c(N3CCCC3)[n+]3c4ccccc4n4c(N5CCCC5)[n+]5ccccc5c4c3c2c1
inactive: [1] 78.3 µM | [3] 18.7 µM | [4] 36.2 µM | [5] 34.6 µM | [6] > 100 µM | [7] 43.5 µM | [8] 98.6 µM | [9] 67.1 µM | [10] 28.2 µM | [11] 87.5 µM | [20] 41.8 µM | [12] 25.4 µM | [13] > 100 µM | [14] > 100 µM | [15] 42.7 µM | [16] 46.3 µM | [17] > 100 µM | [19] 38.1 µM

CN(C)/C=N/c1c2c(nc3ccccc13)CCCC2
inactive: [2] > 100 µM | [3] 93.8 µM | [4] > 100 µM | [5] 71 µM | [6] > 100 µM | [7] 66.2 µM | [8] 53.3 µM | [9] 72.9 µM | [10] > 100 µM | [11] 38.6 µM | [20] > 100 µM | [12] 50.1 µM | [13] > 100 µM | [14] 91 µM | [15] > 100 µM | [16] 41.5 µM | [17] > 100 µM | [18] 67.8 µM | [19] 25.9 µM

CC(=O)Nc1ncc2c(n1)-c1ccccc1OC2c1ccccc1 (stereo not given)
inactive: [2] 42.8 µM | [3] 14.1 µM | [5] > 100 µM | [6] 61 µM | [7] 24.7 µM | [8] > 100 µM | [9] > 100 µM | [10] 33.1 µM | [11] > 100 µM | [20] 14.1 µM | [12] 23.6 µM | [13] > 100 µM | [14] > 100 µM | [15] 46.5 µM | [16] 32.2 µM | [17] 21.7 µM | [18] > 100 µM | [19] > 100 µM
